Laboratory results reported in patent EP4796126A1, “COMBINATION OF CLDN18_2 ANTIBODY AND CHEMOTHERAPEUTIC DRUG AND USE THEREOF” (Jiangsu Aosaikang Biopharmaceutical Co., Ltd., priority 2023, dated 2025).

What was measured:
Miapaca2/18.2 = assay: Efficacy against subcutaneous xenograft tumors of human pancreatic cancer Miapaca2/18.2 in mice; format: in vivo
Experimental: (§1) NOD-Scid mice (7 weeks old, female) were purchased from Shanghai Lingchang Biotechnology Co., Ltd. Each mouse was subcutaneously inoculated with 1 × 10^7 Miapaca2/18.2 cells. When tumor volume reached 60 mm^3 to 150 mm^3, the mice were grouped according to tumor volume and then the medicaments were administered intraperitoneally (IP) at an injection volume of 0.1 mL per 10 g of body weight.

KATO III/18.2 = assay: Efficacy against subcutaneous xenograft tumors of human gastric cancer KATO III/18.2 in mice; format: in vivo, NOD-Scid mice
Experimental: as §1, with “× 10^7 KATO III/18.2 cells. When” for “× 10^7 Miapaca2/18.2 cells. When”, “to tumor volume, and then” for “to tumor volume and then”

Compound | tumor growth inhibition (Miapaca2/18.2; Day 14 (first dose Day 0), M5 monoclonal antibody or Human IgG1 10 mg/kg IP BIW 4 times, gemcitabine 75 mg/kg IP Q4D 2 times) [%] | maximum weight loss (Miapaca2/18.2; mice, on Day 7) [%] | mice died (Miapaca2/18.2; ten mice per group) | tumor growth inhibition (KATO III/18.2; Day 23 (first dose Day 0), M5 monoclonal antibody or Human IgG1 10 mg/kg IP BIW 6 times, oxaliplatin 8 mg/kg IP Q4D 3 times) [%] | maximum weight losses (KATO III/18.2; mice, on Day 10) [%]
Nc1ccn([C@@H]2O[C@H](CO)[C@@H](O)C2(F)F)c(=O)n1 [gemcitabine] | 53 | 9.2 | one out of ten | – | –
O=C1[O][Pt]2([NH][C@@H]3CCCC[C@H]3[NH]2)[O]C1=O [oxaliplatin] | – | – | – | 31 | 5.5
